The source of these data is patent US4855290A (priority 1985, dated 1989).

Several values for one entry are separate records, joined by “and”; a condition that tells them apart may be missing. Equal entries are not always repeated. Entries after “also recorded” stand apart in the source; their conditions may differ. Where two headings read alike, the source gives them in different places.

Data set [1] deals with Guinea-pig ileum. Nature of the data set: Guinea-pig ileum induced contractions. The note with it: ileum contraction.
A short description of data set [2]: in vivo. The note with it: mouse, po.
Data set [3] can be described thus: Signs observed in rats after oral dose of 100 mg./kg. It counts as in vivo. As to conditions: 100 mg./kg. oral.
Data set [4] deals with Guinea-pig ileum. The data set can be described thus: Guinea-pig ileum induced contractions. The note with it: for Type of activity: guinea-pig ileum; for IC50: inhibiting acetylcholine-induced contractions of the ileum. The text has this:
Guinea-pig ileum induced contractions
*This dose is the IC50 for inhibiting acetylcholineinduced
contractions of the ileum.

Data set [5] concerns the target central muscarinic receptors (M1 and M2). It counts as binding, rat.
The nature of data set [6]: in vivo. As to conditions: mouse, iv.
In data set [7] the target is central muscarinic receptors (M1) (Rattus norvegicus, UniProt P08482). The data set can be described thus: biochemical. The format is binding. Also noted: IC50^1 :IC50^2: unit not given beside the values.
Chain of central muscarinic receptors (M1) (P08482 whole entry): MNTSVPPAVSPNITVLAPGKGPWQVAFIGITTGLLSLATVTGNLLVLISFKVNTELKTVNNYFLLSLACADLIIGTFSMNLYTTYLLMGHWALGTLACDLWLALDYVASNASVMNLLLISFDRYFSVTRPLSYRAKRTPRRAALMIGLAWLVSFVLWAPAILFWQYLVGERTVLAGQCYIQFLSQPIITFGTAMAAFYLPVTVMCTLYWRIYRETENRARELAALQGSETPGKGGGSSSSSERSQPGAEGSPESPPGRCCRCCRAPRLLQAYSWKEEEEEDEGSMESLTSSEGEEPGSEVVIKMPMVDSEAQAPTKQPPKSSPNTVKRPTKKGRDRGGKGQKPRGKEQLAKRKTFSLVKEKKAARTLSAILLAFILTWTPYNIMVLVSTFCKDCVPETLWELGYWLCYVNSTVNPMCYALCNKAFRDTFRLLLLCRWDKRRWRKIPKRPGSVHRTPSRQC
Test in data set [8]: not given
The source holds these as a separate data set.

Data set [9] is described as follows: Hypothermia-inducing activity in rats. As to conditions: AF102B at 80 mg./kg. p.o. and 60 mg./kg. i.p., oxotremorine 3.2 mg./kg. p.o. or 1.2 mg./kg. i.p.
Data set [10] in a line: LD50 of physostigmine (relative toxicity in rats). As to conditions: rat, in vivo, ip.
Details of data set [11]: species or system Male Sprague-Dawley rats. As to conditions: rat, in vivo.
The nature of data set [12]: Morris Swimming Maze in AF64A- and CSF-injected rats. It counts as in vivo, male Sprague Dawley rats. The note with it: AF102B 1 mg./kg., ip, physostigmine 0.1 mg./kg. On the procedure: 38 male Sprague Dawley rats (raised by Charles River) 5-6 months old with an average weight of 500 g. were used. The rats were housed in groups of 5 and were given free access to food and water. Testing was carried out in a round white metal tub 1.4 m. diameter and 0.4 m. deep. The tub was filled with water, made opaque by milk powder to the level of 18 cm. A platform of 12 cm. diameter and at a height of 16 cm. was placed in the tub 2 cm. below water level. The platform was covered with gauze to prevent the animal from slipping back into the water after reaching the platform.
Prior to testing, the rat was placed on the platform for 120 secs., placed gently into the water, facing the wall of the pool, at one of four starting locations (north, south, east or west) around the pool's perimeter. Within each block of four trials, each rat was started at each of the four starting locations, with the sequence of starting locations randomly selected. Testing was carried out on 2 consecutive days with each rat submitted daily to eight trials. During trials 1-12 the platform was located in the center of the south-east quadrant and during trials 13-16 the platform was transferred to the center of the north-west quadrant. If in a particular trial the rat found the platform, it was permitted to remain on it for 60 secs. before starting the next trial. […] The latency to find the platform was measured.
For drug testing, rats were injected with AF64A or CSF (3 nmole/2 ul/side) as described in Experiment 2, above. The rats were subjected first to a step-through learning procedure (see Experiment 1, above) and were 3-3.5 months after injection when tested in the water maze. The rats were divided into 4 groups; 18 CSF-injected rats were treated either with physostigmine (0.1 mg./kg. ip) (10 rats) or with saline (8 rats). 20 AF64A-injected rats were divided similarly. The rats were injected with physostigmine immediately before testing on each day.
Forty male Sprague-Dawley rats (obtained from Charles River Breeding Laboratories U.K.), 5-6 months old, weighing 450-580 g. during the experiment served as subjects. Rats were housed in groups of 5 and were given free access to food and water. 2.5-3.5 months before behavioral testing, rats were injected with AF64A (3 nmole/2 ul/side) (20 rats-group 1) or CSF (20 rats-group 2) as described in the surgery procedure.
Each of the injected groups was randomly subdivided into two equal size treatment groups.

For orientation: EC50 means the concentration giving half of the maximal effect. Broadly, the LD50 is the dose expected to kill half of the subjects tested. As usually defined, the IC50 is the concentration needed to halve the response being measured.

`C[C@@H]1O[C@]2(CS1)CN1CCC2CC1` (relative stereo) [AF102A] registered an EC50 in the data set with Guinea-pig ileum [1] of over 10000 nM. The LD50 amounted to 102 mg/kg in “in vivo [2]” and 40.4 mg/kg in the data set “in vivo [6]”. The Mortality is, setting by setting: (mice, 78 mg./kg. per os) 0/5; (mice, 90 mg./kg. per os) 2/5; (mice, 104 mg./kg. per os) 2/5; (mice, 120 mg./kg. per os) 4/5; (mice, 139 mg./kg. per os) 5/5; (mice, 160 mg./kg. per os) 5/5. In addition, the Mortality in data set [8] (mice, 36.0 mg./kg. i.v.) is recorded as 2/6; in data set [8] (mice, 37.9 mg./kg. i.v.) it was 3/6; in data set [8] (mice, 40.0 mg./kg. i.v.), 2/6; in data set [8] (mice, 42.5 mg./kg. i.v.), 4/6; in [8] (mice, 45.0 mg./kg. i.v.), 6/6. Further, under “mice, approximate LD50 doses, oral”, the “time of death after oral administration” value fell in the range of 10 to 15 min. Besides, for the setting “mice, inferred from i.v./oral LD50 ratio”, the “absorption by the enteric route” value is “efficient, rapid and apparently unaltered absorption”. Also, the “effects considered characteristic of parasympatho- or cholinomimetic activity” value (mouse, in vivo) is listed as “none of the test animals exhibited effects considered characteristic of parasympatho- or cholinomimetic activity”. Besides, the “onset of severe tremors after oral administration” value (mouse, in vivo, po) lay in the range of 2 to 3 min. Besides, the “Signs observed in rats” value in data set [3] is “spontaneous motor activity was slightly reduced; also recorded: mydriasis, with pupillary size being about three times that seen in controls; also recorded: sudden onset of a brief clonic convulsive seizure which 5 mins. later changed into periodic head twitching and tremors; also recorded: animals appeared somnolent, accompanied by partial loss of righting reflex, dyspnoeic and cyanotic, with very slight salivation and lachrymation; also recorded: full recovery occurred after several hours”. Moreover, the mortality in rats entry in [3] was “one animal, out of the group of three, which was found dead”. The compound further showed a time found dead in data set [3] (post-administration) of 40 min. For the same compound, the “muscarinic agonist activity (TABLES 1 and 2)” value with Guinea-pig ileum [4] (binding and ileum) is reported as “almost one order of magnitude less active”. Moreover, the Type of activity entry in the data set on Guinea-pig ileum [4] was “agonist”. For the same compound, the 50% inhibitory concentration (IC50) in data set [5] (read-out: IC50^2 for displacement of [^3 H]-QNB) was 70000 nM; in [7] it was 30000 nM. In data set [7] (PNZ:QNB displacement ratio), the “IC50^1 :IC50^2” value came out at 0.43. For the same compound, in data set [8] (mice, approximate LD50 doses, iv), the “time of death after intravenous injection” value is “about 30 secs”. The “onset of severe tremors after intravenous administration” value in data set [8] (mouse, in vivo, iv) came out at 10 s.

Take `C[C@@H]1OCC2(CN3CCC2CC3)O1` (stereo in doubt) [AF30, cis-2-methylspiro(1,3-dioxolane-4,3')quinuclidine, reference compound]: the midpoint of the response in the data set on Guinea-pig ileum [1], the EC50, lay at 4000 nM. Moreover, the “effects considered characteristic of parasympatho- or cholinomimetic activity” value (mice, oral or iv, tremors, salivation, lachrymation, diarrhoea, miosis) is reported as “did exhibit such side effects”. Also, the Type of activity result in the data set on Guinea-pig ileum [4] was “agonist”.

With `c1ccc(C(c2ccccc2)C2OC3(CS2)CN2CCC3CC2)cc1` (stereo not drawn) [(Ib), 2-diphenylmethylspiro(1,3-oxathiolane-5,3')quinuclidine], in the data set on Guinea-pig ileum [4], the Type of activity result is recorded as “antagonist” and 20 nM corresponded to half-maximal inhibition (IC50).

In the case of `CC1(c2ccccc2)OC2(CS1)CN1CCC2CC1` (stereo not drawn) [(Ic), 2-methyl-2-phenylspiro(1,3-oxathiolane-5,3')quinuclidine], in the data set with Guinea-pig ileum [4], the Type of activity result is “antagonist” and it took 2000 nM to reach half-maximal inhibition (IC50).

As to `O=C1CCCN1CC#CCN1CCCC1` [oxotremorine, reference compound], in data set [9], the cholinomimetic manifestation entry is on record as “full cholinomimetic syndrome associated with tonic-clonic convulsions”. For the same compound, the EC50 in data set [5] (summary table, read-out: EC50, [^3 H]--QNB-binding) was 3000 nM. In data set [7], a half-maximal response (EC50) required 800 nM, half-maximal inhibition (IC50) was put at 800 nM and the “IC50^1 :IC50^2” value is 0.27.

Take `CNC(=O)Oc1ccc2c(c1)[C@]1(C)CCN(C)[C@@H]1N2C` [physostigmine, reference compound]: the median lethal dose (LD50) in [10] lay in the range of 1 to 2 mg/kg. In [11], the Initial-test latency was 25.50 ± 5.68 s and 29.70 ± 7.93 s; the “reversal of AF64A-induced memory impairments in passive avoidance” value was “could be reversed”. Further, in data set [11] (ip), the Retention-test latency was 458.90 ± 63.33 s and 576.10 ± 22.69 s; the Therapeutic index is 5-17 and 10-17; the “retention of passive avoidance (statistics)” value was “significantly longer, F(1,36)=5.91, p=0.05; also recorded: significantly improved; also recorded: the retention of the CSF-injected group was not affected”. Also, the “effect in Morris Swimming Maze” value in data set [12] is listed as “negative effect; also recorded: inhibited the decrease of the escape-latency curve”. The “effect in Morris Swimming Maze” value in data set [12] (listed as Physostigmine) is “worsens; also recorded: apparently impaired the performance of both AF64A and CSF-injected groups”.
